pIC50: −log10 of the molar value.
Columns and labels:
mCOX-2 = target: T1, mCOX-2 (Mus musculus, UniProt Q05769); assay: IC50 for inhibition of mCOX-2 oxygenation of AA after preincubation; format: biochemical, murine; conditions: read-out: IC50 for inhibition of AA oxygenation; 2 min preincubation; 50 μM AA
T1 sequence (Q05769 18-604): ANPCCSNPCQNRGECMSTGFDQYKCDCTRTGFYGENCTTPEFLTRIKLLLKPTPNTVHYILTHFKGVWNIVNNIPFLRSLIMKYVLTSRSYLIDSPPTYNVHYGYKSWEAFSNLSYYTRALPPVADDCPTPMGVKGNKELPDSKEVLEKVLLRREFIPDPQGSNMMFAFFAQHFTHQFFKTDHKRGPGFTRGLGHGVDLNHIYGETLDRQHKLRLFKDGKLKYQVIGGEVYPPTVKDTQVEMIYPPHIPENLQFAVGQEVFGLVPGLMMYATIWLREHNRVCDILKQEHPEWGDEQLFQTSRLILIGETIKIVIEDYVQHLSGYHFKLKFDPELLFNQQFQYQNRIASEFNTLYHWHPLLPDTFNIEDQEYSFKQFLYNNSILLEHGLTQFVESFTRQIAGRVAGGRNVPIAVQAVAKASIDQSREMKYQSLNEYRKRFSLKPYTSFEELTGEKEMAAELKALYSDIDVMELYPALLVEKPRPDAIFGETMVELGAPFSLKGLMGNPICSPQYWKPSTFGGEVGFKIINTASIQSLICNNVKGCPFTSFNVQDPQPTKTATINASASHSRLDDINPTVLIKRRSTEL

murine COX-2 (mCOX-2) [1] = target: T2, murine COX-2 (mCOX-2) (Mus musculus, UniProt Q05769); assay: Instantaneous inhibition of mCOX-2 oxygenation of AA; format: biochemical; conditions: substrate AA
T2 sequence (Q05769 18-604): T1 sequence (Q05769 18-604)

murine COX-2 (mCOX-2) [2] = target: T2, murine COX-2 (mCOX-2); assay: Instantaneous inhibition of mCOX-2 oxygenation of 2-AG; format: biochemical; conditions: substrate 2-AG

pIC50 (mCOX-2)	Mode of inhibition of AA oxygenation (murine COX-2 (mCOX-2) [1])	Mode of inhibition of 2-AG oxygenation (murine COX-2 (mCOX-2) [2])	Oxygenation of 2-AG at 5 μM inhibitor (murine COX-2 (mCOX-2) [2]; mefenamate 5 μM)	SMILES
~3.30				COc1ccc2c(c1)c(CC(=O)O)cn2C(=O)c1ccc(Cl)cc1 [2′-des-methylindomethacin]
	competitive	noncompetitive	completely inhibited	Cc1cccc(Nc2ccccc2C(=O)O)c1C [mefenamic acid]
